Results as given in patent US9896441B2 (Lycera Corporation, priority 2014, dated 2018).

Legend:
[1] = molecular target: T1, RORγ-LBD (Homo sapiens, UniProt P51449); test: RORγ-Ligand Binding Domain (LBD) TR-FRET Assay; type: biochemical; conditions: RORγ-LBD TR-FRET assay; for TR-FRET Assay Max Response: maximum response;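 for TR-FRET Assay Max Response: 665/615 nm signal ratio set to 100 without ursolic acid or test compound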
T1 construct: made in house; host or cells: SF9 cells (baculovirus); used as diluted lysate
T1 sequence (P51449 269-508 limits assumed): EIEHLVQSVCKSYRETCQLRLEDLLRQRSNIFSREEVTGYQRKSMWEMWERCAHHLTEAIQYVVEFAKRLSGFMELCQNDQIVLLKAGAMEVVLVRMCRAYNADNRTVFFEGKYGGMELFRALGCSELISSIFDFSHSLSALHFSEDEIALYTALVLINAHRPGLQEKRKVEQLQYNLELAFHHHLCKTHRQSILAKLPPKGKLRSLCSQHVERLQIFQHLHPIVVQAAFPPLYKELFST
In short: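 Lysate from SF9 cells expressing His-RORγ-LBD is diluted to about 3 nM final in 50 mM Tris pH 7.0 assay buffer. A biotin-tagged SRC1 LXXLL peptide goes in at 200 nM final, plus ursolic acid at 2 μM final. Test compounds carry 1% DMSO final; signal read by TR-FRET.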

[2] = molecular target: T2, Gal4-RORγ-LBD (Homo sapiens, UniProt P51449); test: Gal4-RORγ Luciferase Reporter Assay in HEK-293T Cells; type: cell-based; conditions: HEK-293 cells, luciferase reporter, in presence of ursolic acid; for Gal4-RORγ Assay Max Response: maximum response
T2 construct: expressed in transfected cells
T2 sequence (P51449 269-508 limits assumed): T1 sequence (P51449 269-508 limits assumed)
In short: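 Max Response was taken as the upper plateau of a 4-parameter logistic fit of luciferase signal, normalized to 100 for wells without ursolic acid or compound. Transiently Gal4-RORγ-LBD/Gal4-luc transfected HEK-293 cells carrying […] ursolic acid were incubated with test compounds (0.2% DMSO) overnight at 37 °C and read with One-Glo.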

| Compound | EC50 [1] | EC50 [2] | TR-FRET Assay Max Response [1] | Gal4-RORγ Assay Max Response [2] |
| --- | --- | --- | --- | --- |
| C/C(=C\c1ccc2c(c1)N(S(=O)(=O)c1cccc(C(F)(F)F)c1)C[C@H](CCC(=O)N1CCC(C(=O)[O-])CC1)O2)c1c(F)cccc1Cl.[Na+] [Example 128, Sodium Salt of (S,E)-1-(3-(6-(2-(2-Chloro-6-fluorophenyl)prop-1-en-1-yl)-4-((3-(trifluoromethyl)phenyl)sulfonyl)-3,4-dihydro-2H-benzo[b][1,4]oxazin-2-yl)propanoyl)piperidine-4-carboxylic acid] | < 500 nM | < 500 nM | **** (a value greater than 200) | ** (a value in the range of greater than 90 to 150) |
| C/C(=C\c1ccc2c(c1)N(S(=O)(=O)c1cccc(C(F)(F)F)c1)C[C@H](CCC(=O)N1CCC[C@@H]1C(=O)O)O2)c1c(F)cccc1Cl [Example 129H, (3-((S)-6-((E)-2-(2-chloro-6-fluorophenyl)prop-1-en-1-yl)-4-((3-(trifluoromethyl)phenyl)sulfonyl)-3,4-dihydro-2H-benzo[b][1,4]oxazin-2-yl)propanoyl)-D-proline] | < 500 nM | < 500 nM | *** (a value in the range of greater than 150 to 200) | *** (a value in the range of greater than 150 to 200) |
| C/C(=C\c1ccc2c(c1)N(S(=O)(=O)c1cccc(C(F)(F)F)c1)C[C@H](CCC(=O)N1CC(C)(C(=O)O)C1)O2)c1c(F)cccc1Cl [Example 129I, (S,E)-1-(3-(6-(2-(2-chloro-6-fluorophenyl)-prop-1-en-1-yl)-4-((3-(trifluoromethyl)phenyl)sulfonyl)-3,4-dihydro-2H-benzo[b][1,4]oxazin-2-yl)propanoyl)-3-methylazetidine-3-carboxylic acid] | < 500 nM | < 500 nM | *** (a value in the range of greater than 150 to 200) | ** (a value in the range of greater than 90 to 150) |
| C/C(=C\c1ccc2c(c1)N(S(=O)(=O)c1cccc(C(F)(F)F)c1)C[C@H](CCC(=O)N1CCC[C@H]1C(=O)O)O2)c1c(F)cccc1Cl [Example 129J, (3-((S)-6-((E)-2-(2-chloro-6-fluorophenyl)prop-1-en-1-yl)-4-((3-(trifluoromethyl)phenyl)sulfonyl)-3,4-dihydro-2H-benzo[b][1,4]oxazin-2-yl)propanoyl)-L-proline] | < 500 nM | 500 to 5000 nM | **** (a value greater than 200) | *** (a value in the range of greater than 150 to 200) |
| C/C(=C\c1ccc2c(c1)N(S(=O)(=O)c1cc(C(F)(F)F)cnc1OCCO)C[C@H](CCC(=O)N1CCC(C(=O)O)CC1)O2)c1c(F)cccc1Cl [Example 129K, (S,E)-1-(3-(6-(2-(2-chloro-6-fluorophenyl)-prop-1-en-1-yl)-4-((2-(2-hydroxyethoxy)-5-(trifluoromethyl)pyridin-3-yl)sulfonyl)-3,4-dihydro-2H-benzo[b][1,4]oxazin-2-yl)propanoyl)piperidine-4-carboxylic acid] | < 500 nM | 500 to 5000 nM | *** (a value in the range of greater than 150 to 200) | ** (a value in the range of greater than 90 to 150) |
| CCOc1ncc(C(F)(F)F)cc1S(=O)(=O)N1C[C@H](CCC(=O)N2CCC(C(=O)O)CC2)Oc2ccc(/C=C(\C)c3c(F)cccc3Cl)cc21 [Example 129L, (S,E)-1-(3-(6-(2-(2-chloro-6-fluorophenyl)-prop-1-en-1-yl)-4-((2-ethoxy-5-(trifluoro-methyl)pyridin-3-yl)sulfonyl)-3,4-dihydro-2H-benzo[b][1,4]oxazin-2-yl)propanoyl)-piperidine-4-carboxylic acid] | < 500 nM | < 500 nM | *** (a value in the range of greater than 150 to 200) | * (a value in the range of 30 to 90) |
| C/C(=C\c1ccc2c(c1)N(S(=O)(=O)c1cc(C(F)(F)F)ccc1OCCO)C[C@H](CCC(=O)N1CCC(C(=O)O)CC1)O2)c1c(F)cccc1Cl [Example 129M, (S,E)-1-(3-(6-(2-(2-chloro-6-fluorophenyl)-prop-1-en-1-yl)-4-((2-(2-hydroxyethoxy)-5-(trifluoromethyl)phenyl)sulfonyl)-3,4-dihydro-2H-benzo[b][1,4]oxazin-2-yl)propanoyl)piperidine-4-carboxylic acid] | < 500 nM | 500 to 5000 nM | *** (a value in the range of greater than 150 to 200) | ** (a value in the range of greater than 90 to 150) |

Now from value to compound, other results behind:

| EC50 [1] | EC50 [2] | Compound | TR-FRET Assay Max Response [1] | Gal4-RORγ Assay Max Response [2] |
| --- | --- | --- | --- | --- |
| < 500 nM | < 500 nM | O=C(O)C1CCN(C(=O)CC[C@H]2CN(S(=O)(=O)c3cccc(C(F)(F)F)c3)c3cc(/C=C/c4c(Cl)cccc4C(F)(F)F)ccc3O2)CC1 [Example 129A, (S,E)-1-(3-(6-(2-chloro-6-(trifluoromethyl)styryl)-4-((3-(trifluoromethyl)-phenyl)sulfonyl)-3,4-dihydro-2H-benzo[b]-[1,4]oxazin-2-yl)propanoyl)piperidine-4-carboxylic acid] | **** (a value greater than 200) | ** (a value in the range of greater than 90 to 150) |
| < 500 nM | < 500 nM | C/C(=C\c1ccc2c(c1)N(S(=O)(=O)c1cccc(C(F)(F)F)c1)C[C@H](CCC(=O)N1CC[C@@H](C(=O)O)C1)O2)c1c(F)cccc1Cl [Example 129B, (R)-1-(3-((S)-6-((E)-2-(2-chloro-6-fluorophenyl)-prop-1-en-1-yl)-4-((3-(trifluoromethyl)phenyl)sulfonyl)-3,4-dihydro-2H-benzo[b][1,4]oxazin-2-yl)propanoyl)pyrrolidine-3-carboxylic acid] | **** (a value greater than 200) | ** (a value in the range of greater than 90 to 150) |
| < 500 nM | < 500 nM | C/C(=C\c1ccc2c(c1)N(S(=O)(=O)c1cccc(C(F)(F)F)c1)C[C@H](CCC(=O)N1CC[C@H](C(=O)O)C1)O2)c1c(F)cccc1Cl [Example 129C, (S)-1-(3-((S)-6-((E)-2-(2-chloro-6-fluorophenyl)-prop-1-en-1-yl)-4-((3-(trifluoromethyl)phenyl)sulfonyl)-3,4-dihydro-2H-benzo[b][1,4]oxazin-2-1)propanoyl)pyrrolidine-3-carboxylic acid] | **** (a value greater than 200) | ** (a value in the range of greater than 90 to 150) |
| < 500 nM | < 500 nM | C/C(=C\c1ccc2c(c1)N(S(=O)(=O)c1cccc(C(F)(F)F)c1)C[C@H](CCC(=O)N1CC(C(=O)O)C1)O2)c1c(F)cccc1Cl [Example 129D, (S,E)-1-(3-(6-(2-(2-chloro-6-fluorophenyl)-prop-1-en-1-yl)-4-((3-(trifluoromethyl)phenyl)sulfonyl)-3,4-dihydro-2H-benzo[b][1,4]oxazin-2-yl)propanoyl)azetidine-3-carboxylic acid] | **** (a value greater than 200) | ** (a value in the range of greater than 90 to 150) |
| < 500 nM | 500 to 5000 nM | C/C(=C\c1ccc2c(c1)N(S(=O)(=O)c1cccc(C(F)(F)F)c1)C[C@H](CCC(=O)NCC(=O)O)O2)c1c(F)cccc1Cl [Example 129E, (S,E)-(3-(6-(2-(2-chloro-6-fluorophenyl)prop-1-en-1-yl)-4-((3-(trifluoro-methyl)phenyl)sulfonyl)-3,4-dihydro-2H-benzo[b][1,4]oxazin-2-yl)propanoyl)glycine] | **** (a value greater than 200) | ** (a value in the range of greater than 90 to 150) |
| < 500 nM | < 500 nM | C/C(=C\c1ccc2c(c1)N(S(=O)(=O)c1cccc(C(F)(F)F)c1)C[C@H](CCC(=O)N(C)CC(=O)O)O2)c1c(F)cccc1Cl [Example 129F, (S,E)-N-(3-(6-(2-(2-chloro-6-fluorophenyl)-prop-1-en-1-yl)-4-((3-(trifluoromethyl)phenyl)sulfonyl)-3,4-dihydro-2H-benzo[b][1,4]oxazin-2-yl)propanoyl)-N-methylglycine] | *** (a value in the range of greater than 150 to 200) | *** (a value in the range of greater than 150 to 200) |
| < 500 nM | < 500 nM | O=C(O)C1CN(C(=O)CC[C@H]2CN(S(=O)(=O)c3cccc(C(F)(F)F)c3)c3cc(/C=C/c4c(Cl)cccc4C(F)(F)F)ccc3O2)C1 [Example 129G, (S,E)-1-(3-(6-(2-chloro-6-(trifluoromethyl)styryl)-4-((3-(trifluoromethyl)-phenyl)sulfonyl)-3,4-dihydro-2H-benzo[b][1,4]oxazin-2-yl)propanoyl)azetidine-3-carboxylic acid] | **** (a value greater than 200) | ** (a value in the range of greater than 90 to 150) |
